Drawing on ChEMBL document CHEMBL1772979, “SAR studies on a series of N-benzyl-4-heteroaryl-1-(phenylsulfonyl)piperazine-2-carboxamides: potent inhibitors of the polymerase enzyme (NS5B) of the hepatitis C virus” (Bioorg Med Chem Lett, 2011), this text covers EC50 and IC50 for 38 compounds.

For assay [1], the system named is Hepatitis C virus. The experiment in a line: Antiviral activity against Hepatitis C virus subtype 1a by cell based replicon assay. The assay is classed as functional, organism-based, Hepacivirus hominis. On the technique in general: A replicon is a self-replicating genome or part of one, used to study replication in cells.
The subject of assay [2] is Hepatitis C virus. As to the kind of experiment: Antiviral activity against Hepatitis C virus subtype 1b by cell based replicon assay. The assay is classed as functional, organism-based, Hepacivirus hominis, genotype 1b.
Assay [3] can be described thus: Inhibition of Hepatitis C virus subtype 1a wild-type NS5B expressed in Escherichia coli BL21(DE3) assessed as decrease in [3H]-UTP incorporation using polyA template/biotin-labeled dT primer by SPA method.
Assay [4] concerns Hepatitis C virus. As to the kind of experiment: Inhibition of Hepatitis C virus subtype 1b wild-type NS5B expressed in Escherichia coli BL21(DE3) assessed as decrease in [3H]-UTP incorporation using polyA template/biotin-labeled dT primer by SPA method.
Assay [5] deals with Hepatitis C virus. The experiment in a line: Antiviral activity against Hepatitis C virus expressing NS5B Y452H mutant by cell based replicon assay. The assay is classed as functional, organism-based, Hepacivirus hominis.
[6] abbreviates: Hepatitis C virus, subtype 1a, read-out: EC50.
[7] abbreviates: Hepatitis C virus, genotype 1b, read-out: EC50.

For `CCc1ccc(S(=O)(=O)N2CCN(c3cc(OC)nc(OC)n3)CC2C(=O)NCc2c(C)nn(-c3ccccc3)c2C)cc1` (racemic), the EC50 (usually the concentration needed to bring the measured effect to its halfway point) in assay [1] (setting [6]) is 20800 nM; in assay [2] (setting [7]) it was 2100 nM.
`CCc1ccc(S(=O)(=O)N2CCN(c3cc(OC)nc(OC)n3)CC2C(=O)NCc2ccc(OC)cc2)cc1` (racemic): the results for the IC50 in assay [3] and in assay [4] were 12500 nM and 300 nM, respectively. The EC50 in assay [1] (setting [6]) stood at 23000 nM; in assay [2] (setting [7]), 2200 nM.
With `COc1cc(N2CCN(S(=O)(=O)c3ccc(OC)c(OC)c3)C(C(=O)NCc3ccc(OC(F)(F)F)cc3)C2)nc(OC)n1` (racemic), the results for the EC50 in assay [1] (setting [6]) and in assay [2] (setting [7]) were 13000 nM and 1100 nM, respectively.
Regarding `COc1cc(N2CCN(S(=O)(=O)c3ccccc3F)C(C(=O)NCc3ccc(OC(F)(F)F)cc3)C2)nc(OC)n1` (racemic), the EC50 entry in assay [1] and in assay [2] was “Not Active” in each case.
For the compound `COc1cc(N2CCN(S(=O)(=O)c3ccc(F)cc3)C(C(=O)NCc3ccc(OC(F)(F)F)cc3)C2)nc(OC)n1` (racemic), the results for the EC50 entry in assay [1] and in assay [2] (setting [7]) were “Not Active” and 8100 nM, respectively.
`CCc1ccc(S(=O)(=O)N2CCN(c3cc(OC)nc(OC)n3)CC2C(=O)NCc2ccc(OC(F)(F)F)cc2)cc1` (racemic): the EC50 in assay [1] (setting [6]) was 9200 nM; in assay [2] (setting [7]) it was 500 nM.
For `COC(=O)c1cnc(N2CCN(S(=O)(=O)c3ccc(OC(F)(F)F)cc3)C(C(=O)NCc3ccc(OC(F)(F)F)cc3)C2)cn1` (racemic), in that order: 1600 nM and 140 nM.
For `COc1cc(N2CCN(S(=O)(=O)c3cccc(C)c3)C(C(=O)NCc3ccc(OC(F)(F)F)cc3)C2)nc(OC)n1` (racemic), in that order: 41000 nM and 1400 nM.
For the compound `CNC(=O)c1cnc(N2CCN(S(=O)(=O)c3ccc(OC(F)(F)F)cc3)C(C(=O)NCc3ccc(OC(F)(F)F)cc3)C2)cn1` (racemic), the EC50 in assay [1] (setting [6]) was determined as 2230 nM; in assay [2] (setting [7]), 220 nM.
Regarding `CCc1ccc(S(=O)(=O)N2CCN(c3cc(OC)nc(OC)n3)CC2C(=O)NCC2CC2)cc1` (racemic), the EC50 result in assay [1] and in assay [2] was “Not Active” in each case.
Regarding `COc1ccc(S(=O)(=O)N2CCN(c3cc(OC)nc(OC)n3)CC2C(=O)NCc2ccc(OC(F)(F)F)cc2)cc1` (racemic), the EC50 is 64000 nM in assay [1] (setting [6]) and 5900 nM in assay [2] (setting [7]).
On to `COc1cc(N2CCN(S(=O)(=O)c3ccccc3)C(C(=O)NCc3ccc(OC(F)(F)F)cc3)C2)nc(OC)n1` (racemic), for which the EC50 result is “Not Active” in assay [1] and 20300 nM in assay [2] (setting [7]).
`CC[C@H](C)NC(=O)c1ccc(N2CCN(S(=O)(=O)c3ccc(OC(F)(F)F)cc3)[C@@H](C(=O)NCc3ccc(OC(F)(F)F)cc3)C2)nn1` displayed an EC50 in assay [5] of 400 nM. In addition, the IC50 (commonly the midpoint of a concentration-inhibition curve) in assay [4] is 13 nM.
As for `CCc1ccc(S(=O)(=O)N2CCN(c3cc(OC)nc(OC)n3)CC2C(=O)NCc2ccccc2)cc1` (racemic), the EC50 entry in assay [1] was “Not Active”; in assay [2] (setting [7]) it was 8800 nM.
`CCc1ccc(S(=O)(=O)N2CCN(c3cc(OC)nc(OC)n3)C[C@H]2C(=O)NCc2ccc(OC)cc2)cc1`: the EC50 in assay [1] (setting [6]) worked out at 14100 nM; in assay [2] (setting [7]), 10100 nM.
In the case of `COc1cc(N2CCN(S(=O)(=O)c3cccc(-c4ccc(F)cc4)c3)C(C(=O)NCc3ccc(OC(F)(F)F)cc3)C2)nc(OC)n1` (racemic), the EC50 result in assay [1] and in assay [2] was “Not Active” throughout.
Take `CCc1ccc(S(=O)(=O)N2CCN(c3cc(OC)nc(OC)n3)CC2C(=O)NCc2ccc(C)cc2)cc1` (racemic): the values for the EC50 in assay [1] (setting [6]) and in assay [2] (setting [7]) were 20500 nM and 1700 nM, respectively.
For `CCc1ccc(S(=O)(=O)N2CCN(c3cc(OC)nc(OC)n3)CC2C(=O)NCc2ccc(-c3cccs3)cc2)cc1` (racemic), in that order: 47000 nM and 1200 nM.
The matching figures for `CCc1ccc(S(=O)(=O)N2CCN(c3cc(OC)nc(OC)n3)CC2C(=O)NCc2ccccc2Cl)cc1` (racemic): more than 50000 nM and 3700 nM.
For `CCc1ccc(S(=O)(=O)N2CCN(c3cc(OC)nc(OC)n3)CC2C(=O)NCc2ccc(OC)c(OC)c2)cc1` (racemic), in that order: 14600 nM and 900 nM.
On to `COc1cc(N2CCN(S(=O)(=O)C3CCCCC3)C(C(=O)NCc3ccc(OC(F)(F)F)cc3)C2)nc(OC)n1` (racemic), for which the EC50 result in assay [1] and in assay [2] was “Not Active” throughout.
Take `CCC(C)(C)NC(=O)c1ccc(N2CCN(S(=O)(=O)c3ccc(OC(F)(F)F)cc3)C(C(=O)NCc3ccc(OC(F)(F)F)cc3)C2)nn1` (racemic): the EC50 amounted to 460 nM in assay [1] (setting [6]) and 43 nM in assay [2] (setting [7]).
The matching figures for `CCc1ccc(S(=O)(=O)N2CCN(c3cc(OC)nc(OC)n3)CC2C(=O)NCc2ccc(Cl)cc2Cl)cc1` (racemic): more than 50000 nM and 2400 nM.
For `CCc1ccc(S(=O)(=O)N2CCN(c3cc(OC)nc(OC)n3)C[C@@H]2C(=O)NCc2ccc(OC)cc2)cc1`, in that order: 6200 nM and 900 nM.
For `CCc1ccc(S(=O)(=O)N2CCN(c3cc(OC)nc(OC)n3)CC2C(=O)N(C)Cc2ccccc2)cc1` (racemic), the EC50 in assay [1] (setting [6]) and in assay [2] (setting [7]) was more than 50000 nM in each case.
For `COc1cc(N2CCN(S(=O)(=O)c3ccc(OC(F)(F)F)cc3)C(C(=O)NCc3ccc(OC(F)(F)F)cc3)C2)nc(OC)n1` (racemic), the EC50 in assay [1] (setting [6]) was 8100 nM; in assay [2] (setting [7]), 700 nM.
As to `COc1cc(N2CCN(S(=O)(=O)c3ccc(-c4ccccc4)cc3)C(C(=O)NCc3ccc(OC(F)(F)F)cc3)C2)nc(OC)n1` (racemic), the half-maximal effective concentration (EC50) in assay [1] (setting [6]) is 56000 nM; in assay [2] (setting [7]), 2400 nM.
For `CCc1ccc(S(=O)(=O)N2CCN(c3cc(OC)nc(OC)n3)CC2C(=O)NCc2ccc(OC)cc2OC)cc1` (racemic), in that order: 12400 nM and 1200 nM.
The matching figures for `COC(=O)c1ccc(N2CCN(S(=O)(=O)c3ccc(OC(F)(F)F)cc3)C(C(=O)NCc3ccc(OC(F)(F)F)cc3)C2)nn1` (racemic): 3900 nM and 380 nM.
Turning to `CC(C)NC(=O)c1ccc(N2CCN(S(=O)(=O)c3ccc(OC(F)(F)F)cc3)[C@@H](C(=O)NCc3ccc(OC(F)(F)F)cc3)C2)nn1`, the concentration giving a half-maximal response (EC50) in assay [1] (setting [6]) was found to be 139 nM; in assay [2] (setting [7]), 8 nM.
The matching figures for `CNC(=O)c1ccc(N2CCN(S(=O)(=O)c3ccc(OC(F)(F)F)cc3)[C@@H](C(=O)NCc3ccc(OC(F)(F)F)cc3)C2)nn1`: 220 nM and 7 nM.
Take `COc1cc(N2CCN(S(=O)(=O)c3cccc(OC(F)(F)F)c3)C(C(=O)NCc3ccc(OC(F)(F)F)cc3)C2)nc(OC)n1` (racemic): the values for the EC50 in assay [1] (setting [6]) and in assay [2] (setting [7]) were 58000 nM and 5300 nM, respectively.
For `CNC(=O)c1ccc(N2CCN(S(=O)(=O)c3ccc(OC(F)(F)F)cc3)C(C(=O)NCc3ccc(OC(F)(F)F)cc3)C2)nn1` (racemic), in that order: 330 nM and 20 nM.
The matching figures for `COc1cc(N2CCN(S(=O)(=O)c3ccc(C(F)(F)F)cc3)C(C(=O)NCc3ccc(OC(F)(F)F)cc3)C2)nc(OC)n1` (racemic): 13000 nM and 1200 nM.
Regarding `O=C(O)c1ccc(N2CCN(S(=O)(=O)c3ccc(OC(F)(F)F)cc3)C(C(=O)NCc3ccc(OC(F)(F)F)cc3)C2)nn1` (racemic), the EC50 entry in assay [1] and in assay [2] was “Not Active” each time.
Regarding `O=C(O)c1cnc(N2CCN(S(=O)(=O)c3ccc(OC(F)(F)F)cc3)C(C(=O)NCc3ccc(OC(F)(F)F)cc3)C2)cn1` (racemic), the EC50 result in assay [1] and in assay [2] was “Not Active” each time.
Regarding `COc1cc(N2CCN(S(=O)(=O)c3cccc(C(F)(F)F)c3)C(C(=O)NCc3ccc(OC(F)(F)F)cc3)C2)nc(OC)n1` (racemic), the values for the EC50 in assay [1] (setting [6]) and in assay [2] (setting [7]) were 53000 nM and 6200 nM, respectively.
The matching figures for `CCc1ccc(S(=O)(=O)N2CCN(c3cc(OC)nc(OC)n3)CC2C(=O)NCc2ccc(Cl)cc2)cc1` (racemic): 30800 nM and 2100 nM.
